Data as given in patent publication US9695155B2, “Herbicidal substituted pyrimidinyloxy benzene compounds” (E. I. DU PONT DE NEMOURS AND COMPANY, priority 2013, dated 2017).

Experiments:
corn = experiment: Test E postemergence; type: in vivo, Zea mays; settings: Zea mays, post-emergence; for corn plant response (injury) rating, 0-100 at 31 g/ha: 31 g ai/ha; for corn plant response (injury) rating, 0-100 at 62 g/ha: 62 g ai/ha; for corn plant response (injury) rating, 0-100 at 125 g/ha: 125 g ai/ha; for corn plant response (injury) rating, 0-100 at 16 g/ha: postemergence, 16 g ai/ha, scale 0 to 100, 0 no effect, 100 complete control
Source text: (§1) Seeds of plant species selected from corn (Zea mays), soybean (Glycine max), velvetleaf (Abutilon theophrasti), lambsquarters (Chenopodium album), wild poinsettia (Euphorbia heterophylla), palmer pigweed (Amaranthus palmeri), waterhemp (common waterhemp, Amaranthus rudis), surinam grass (Brachiaria decumbens), large (Lg) crabgrass (Digitaria sanguinalis), Brazilian crabgrass (Digitaria horizontalis), fall panicum (Panicum dichotomiflorum), giant foxtail (Setaria faberii), green foxtail (Setaria viridis), goosegrass (Eleusine indica), johnsongrass (Sorghum halepense), ragweed (common ragweed, Ambrosia elatior), barnyardgrass (Echinochloa crus-galli), sandbur (southern sandbur, Cenchrus echinatus), arrowleaf sida (Sida rhombifolia), Italian ryegrass (Lolium multiflorum), dayflower (Virginia (VA) dayflower, Commelina virginica), field bindweed (Convolvulus arvensis), morningglory (Ipomoea coccinea), nightshade (eastern black nightshade, Solanum ptycanthum), kochia (Kochia scoparia), yellow nutsedge (Cyperus esculentus), cocklebur (common cocklebur, Xanthium strumarium), smartweed (ladysthumb smartweed, and hairy beggarticks (Bidens pilosa), were planted into a silt loam soil and treated preemergence with test chemicals formulated in a non-phytotoxic solvent mixture which included a surfactant.
(§2) At the same time, plants from these crop and weed species and also horseweed (Canada horseweed, Conyza canadensis), waterhemp_RES1, (ALS & Triazine resistant common waterhemp, Amaranthus rudis), and waterhemp_RES2, (ALS & HPPD resistant common waterhemp, Amaranthus rudis) were planted in pots containing Redi-Earth® planting medium (Scotts Company, 14111 Scottslawn Road, Marysville, Ohio 43041) comprising spaghnum peat moss, vermiculite, wetting agent and starter nutrients were treated with postemergence applications of test chemicals formulated in the same manner. Plants ranged in height from 2 to 18 cm for postemergence treatments (1- to 4-leaf stage). Treated plants and controls were maintained in a greenhouse for 14 to 21 days, after which time all species were compared to controls and visually evaluated. Plant response ratings, summarized in Table E, are based on a scale of 0 to 100 where 0 is no effect and 100 is complete control. A dash (-) response means no test result.

palmer pigweed = experiment: Test E postemergence; type: in vivo, Amaranthus palmeri; settings: post-emergence, read-out: Plant response rating, Pigweed, Palmer; for pest or weed control at 31 g/ha: 31 g ai/ha; for pest or weed control at 62 g/ha: 62 g ai/ha; for pest or weed control at 125 g/ha: 125 g ai/ha; for pest or weed control at 16 g/ha: postemergence, 16 g ai/ha, scale 0 to 100, 0 no effect, 100 complete control
Source text: as §1, §2

Brazilian crabgrass = experiment: Test E postemergence; type: in vivo, Digitaria horizontalis; settings: Digitaria horizontalis, post-emergence, read-out: Plant response rating, Crabgrass, Brazil; for pest or weed control at 31 g/ha: 31 g ai/ha; for pest or weed control at 62 g/ha: 62 g ai/ha; for pest or weed control at 125 g/ha: 125 g ai/ha; for pest or weed control at 16 g/ha: postemergence, 16 g ai/ha, scale 0 to 100, 0 no effect, 100 complete control
Source text: as §1, §2

arrowleaf sida = experiment: Test E postemergence; type: in vivo, Sida rhombifolia; settings: Sida rhombifolia, post-emergence, read-out: Plant response rating, Arrowleaf Sida; for pest or weed control at 31 g/ha: 31 g ai/ha; for pest or weed control at 62 g/ha: 62 g ai/ha; for pest or weed control at 125 g/ha: 125 g ai/ha; for pest or weed control at 16 g/ha: postemergence, 16 g ai/ha, scale 0 to 100, 0 no effect, 100 complete control
Source text: as §1, §2

Italian ryegrass = experiment: Test E postemergence; type: in vivo, Lolium multiflorum; settings: Lolium multiflorum, post-emergence, read-out: Plant response rating, Ryegrass, Italian; for pest or weed control at 62 g/ha: 62 g ai/ha; for pest or weed control at 125 g/ha: 125 g ai/ha; for pest or weed control at 16 g/ha: postemergence, 16 g ai/ha, scale 0 to 100, 0 no effect, 100 complete control
Source text: as §1, §2

hairy beggarticks = experiment: Test E postemergence; type: in vivo, Bidens pilosa; settings: Bidens pilosa, post-emergence, read-out: Plant response rating, Beggarticks; for pest or weed control at 31 g/ha: 31 g ai/ha; for pest or weed control at 62 g/ha: 62 g ai/ha; for pest or weed control at 125 g/ha: 125 g ai/ha; for pest or weed control at 16 g/ha: postemergence, 16 g ai/ha, scale 0 to 100, 0 no effect, 100 complete control
Source text: as §1, §2

barnyardgrass = experiment: Test C flooded paddy test; type: in vivo, Echinochloa crus-galli; settings: Flood, scale 0 to 100 (0 no effect, 100 complete control), 13 to 15 days
Procedure, shortened: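 In-water treatment: compound dosed into 3 cm flood over soil, water level unchanged throughout. Controls run alongside; visual assessment at day 13–15.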

[1] = Postemergence, 250 g ai/ha, scale 0 to 100

With `Clc1cnn(-c2ccccc2Oc2ncc(Br)cn2)c1` [Compound 5, 5-bromo-2-[2-(4-chloro-1H-pyrazol-1-yl)phenoxy]pyrimidine] the corn plant response (injury) rating, 0-100 at 31 g/ha (corn; Postemergence, scale 0 to 100) was 0%, the corn plant response (injury) rating, 0-100 at 62 g/ha (corn; Postemergence, scale 0 to 100) was 0% and the corn plant response (injury) rating, 0-100 at 125 g/ha (corn; Postemergence, scale 0 to 100) was 0%. It also gave a corn plant response (injury) rating, 0-100 at 250 g/ha (corn; [1]) of 0%, a corn plant response (injury) rating, 0-100 at 16 g/ha (corn) of 0% and a pest or weed control at 31 g/ha (palmer pigweed; Postemergence, scale 0 to 100) of 75%. The pest or weed control at 62 g/ha (palmer pigweed; Postemergence, scale 0 to 100) was 85%, the pest or weed control at 125 g/ha (palmer pigweed; Postemergence, scale 0 to 100) was 95% and the pest or weed control at 250 g/ha (palmer pigweed; [1]) was 98%. For the same compound, the pest or weed control at 16 g/ha (palmer pigweed) was 60%, the pest or weed control at 31 g/ha (Brazilian crabgrass; Postemergence, scale 0 to 100) was 5% and the pest or weed control at 62 g/ha (Brazilian crabgrass; Postemergence, scale 0 to 100) was 10%. The pest or weed control at 125 g/ha (Brazilian crabgrass; Postemergence, scale 0 to 100) was 10%, the pest or weed control at 250 g/ha (Brazilian crabgrass; [1]) was 20% and the pest or weed control at 16 g/ha (Brazilian crabgrass) was 0%. It also gave a pest or weed control at 31 g/ha (arrowleaf sida; Postemergence, scale 0 to 100) of 60%, a pest or weed control at 62 g/ha (arrowleaf sida; Postemergence, scale 0 to 100) of 70% and a pest or weed control at 125 g/ha (arrowleaf sida; Postemergence, scale 0 to 100) of 80%. For the same compound, the pest or weed control at 250 g/ha (arrowleaf sida; [1]) was 85%, the pest or weed control at 16 g/ha (arrowleaf sida) was 60% and the pest or weed control at 31 g/ha (Italian ryegrass; Postemergence, 31 g ai/ha, scale 0 to 100) was 0%. For the same compound, the pest or weed control at 62 g/ha (Italian ryegrass; Postemergence, scale 0 to 100) was 0%, the pest or weed control at 125 g/ha (Italian ryegrass; Postemergence, scale 0 to 100) was 0% and the pest or weed control at 250 g/ha (Italian ryegrass; [1]) was 0%. For the same compound, the pest or weed control at 16 g/ha (Italian ryegrass) was 0%, the pest or weed control at 31 g/ha (hairy beggarticks; Postemergence, scale 0 to 100) was 40% and the pest or weed control at 62 g/ha (hairy beggarticks; Postemergence, scale 0 to 100) was 60%. It also gave a pest or weed control at 125 g/ha (hairy beggarticks; Postemergence, scale 0 to 100) of 60%, a pest or weed control at 250 g/ha (hairy beggarticks; [1]) of 70% and a pest or weed control at 16 g/ha (hairy beggarticks) of 30%.
Compound `N#Cc1cccc(Oc2ncc(F)cn2)c1-n1cc(C(F)(F)F)cn1` [Compound 79, 3-[(5-fluoro-2-pyrimidinyl)oxy]-2-[4-(trifluoromethyl)-1H-pyrazol-1-yl]benzonitrile] has a corn plant response (injury) rating, 0-100 at 31 g/ha (corn; Postemergence, scale 0 to 100) of 0%, a corn plant response (injury) rating, 0-100 at 62 g/ha (corn; Postemergence, scale 0 to 100) of 10% and a corn plant response (injury) rating, 0-100 at 125 g/ha (corn; Postemergence, scale 0 to 100) of 15%. For the same compound, the corn plant response (injury) rating, 0-100 at 16 g/ha (corn) was 0%, the pest or weed control at 31 g/ha (palmer pigweed; Postemergence, scale 0 to 100) was 50% and the pest or weed control at 62 g/ha (palmer pigweed; Postemergence, scale 0 to 100) was 95%. It also gave a pest or weed control at 125 g/ha (palmer pigweed; Postemergence, scale 0 to 100) of 90%, a pest or weed control at 16 g/ha (palmer pigweed) of 50% and a pest or weed control at 31 g/ha (Brazilian crabgrass; Postemergence, scale 0 to 100) of 10%. For the same compound, the pest or weed control at 62 g/ha (Brazilian crabgrass; Postemergence, scale 0 to 100) was 20%, the pest or weed control at 125 g/ha (Brazilian crabgrass; Postemergence, scale 0 to 100) was 30% and the pest or weed control at 16 g/ha (Brazilian crabgrass) was 0%. It also gave a pest or weed control at 31 g/ha (arrowleaf sida; Postemergence, scale 0 to 100) of 75%, a pest or weed control at 62 g/ha (arrowleaf sida; Postemergence, scale 0 to 100) of 85% and a pest or weed control at 125 g/ha (arrowleaf sida; Postemergence, scale 0 to 100) of 98%. For the same compound, the pest or weed control at 16 g/ha (arrowleaf sida) was 65%, the pest or weed control at 62 g/ha (Italian ryegrass; Postemergence, scale 0 to 100) was 0% and the pest or weed control at 125 g/ha (Italian ryegrass; Postemergence, scale 0 to 100) was 0%. The pest or weed control at 16 g/ha (Italian ryegrass) was 0%, the pest or weed control at 31 g/ha (hairy beggarticks; Postemergence, scale 0 to 100) was 50% and the pest or weed control at 62 g/ha (hairy beggarticks; Postemergence, scale 0 to 100) was 75%. For the same compound, the pest or weed control at 125 g/ha (hairy beggarticks; Postemergence, scale 0 to 100) was 80% and the pest or weed control at 16 g/ha (hairy beggarticks) was 40%.
In the case of `FC(F)c1cnn(-c2ccccc2Oc2ncc(Cl)cn2)c1` [Compound 80, 5-chloro-2-[2-[4-(difluoromethyl)-1H-pyrazol-1-yl]phenoxy]pyrimidine], the “Plant response rating, Barnyardgrass” value (barnyardgrass; 250 g ai/ha) is reported as 0, the “Plant response rating, Barnyardgrass” value (barnyardgrass; 500 g ai/ha) is reported as 0 and the “Plant response rating, Barnyardgrass” value (barnyardgrass; 1000 g ai/ha) is reported as 0. For the same compound, the “Plant response rating, Barnyardgrass” value (barnyardgrass; 2000 g ai/ha) was 0.
In the case of `N#Cc1cccc(Oc2ncc(Cl)cn2)c1-n1cc(OC(F)F)cn1` [Compound 97], the “Plant response rating, Barnyardgrass” value (barnyardgrass; 31 g ai/ha) is reported as 0, the “Plant response rating, Barnyardgrass” value (barnyardgrass; 62 g ai/ha) is reported as 0 and the “Plant response rating, Barnyardgrass” value (barnyardgrass; 125 g ai/ha) is reported as 0. The “Plant response rating, Barnyardgrass” value (barnyardgrass; 250 g ai/ha) was 0.
